This note sets out measurements from US8003785B2 (Takeda Pharmaceutical Company Limited, priority 2008, dated 2011).

Structures are written as SMILES.

The target of one assay is T1, PLK1 (Homo sapiens, UniProt P53350).
T1 construct: Full-length, active GST-PLK1 is purified from Sf9 insect cells; made in house; host or cells: Sf9 insect cells
T1 sequence (P53350 whole entry): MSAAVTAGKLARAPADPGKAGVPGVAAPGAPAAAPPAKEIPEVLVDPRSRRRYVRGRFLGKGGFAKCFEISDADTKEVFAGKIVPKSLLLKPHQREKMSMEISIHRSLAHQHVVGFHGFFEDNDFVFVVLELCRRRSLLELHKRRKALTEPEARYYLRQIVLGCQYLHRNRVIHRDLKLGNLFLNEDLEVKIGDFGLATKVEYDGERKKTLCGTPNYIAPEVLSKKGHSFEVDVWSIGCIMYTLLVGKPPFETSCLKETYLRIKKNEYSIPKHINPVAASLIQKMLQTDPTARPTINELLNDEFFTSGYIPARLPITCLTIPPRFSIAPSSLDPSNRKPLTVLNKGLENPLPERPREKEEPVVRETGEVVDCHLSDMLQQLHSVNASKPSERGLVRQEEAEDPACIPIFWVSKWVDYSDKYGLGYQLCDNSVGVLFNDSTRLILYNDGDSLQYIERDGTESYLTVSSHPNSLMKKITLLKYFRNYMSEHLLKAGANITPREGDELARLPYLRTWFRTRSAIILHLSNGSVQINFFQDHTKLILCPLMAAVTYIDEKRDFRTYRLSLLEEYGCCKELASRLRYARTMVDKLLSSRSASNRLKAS
Briefly: Biochemical Characterization Assay: HTRF kinase assay, GST-PLK1 phosphorylation of GST-p53. The settings on record: GST-PLK1, GST-p53 substrate. Put shortly: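 HTRF read-out of p53 phosphorylation: after EDTA stop, anti-phospho-p53 antibody bound 30 min at 37 °C in HEPES pH 7 buffer, with Eu-anti-rabbit/APC-anti-GST detection. Kinase step used full-length Sf9-expressed GST-PLK1 (3 ug/mL) and E. coli GST-p53 substrate, 35 min at 37 °C.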
(In general: Time-resolved FRET reads energy transfer from a long-lived donor to a nearby acceptor.)
Take `CN(C)CCCNC(=O)c1ccc(Nc2ncc3c(n2)N(C2CCCCC2)CC(F)(F)C(=O)N3C)cc1` [Example I-265, 4-(9-cyclohexyl-7,7-difluoro-5-methyl-6-oxo-6,7,8,9-tetrahydro-5H-pyrimido[4,5-b][1,4]diazepin-2-ylamino)-N-(3-dimethylamino-propyl)-benzamide]: the IC50 (usually the concentration that gives 50% inhibition) is 1 to 50 nM. The molecule `COc1cc(C(N)=O)ccc1Nc1ncc2c(n1)N(CCc1ccccc1)CC(F)(F)C(=O)N2C` [Example I-277, 4-(7,7-difluoro-5-methyl-6-oxo-9-phenethyl-6,7,8,9-tetrahydro-5H-pyrimido[4,5-b][1,4]diazepin-2-ylamino)-3-methoxy-benzamide] returned an IC50 of 51 to 500 nM. Still for that read-out and setting: the result for `CCN1CCC(NC(=O)c2ccc(Nc3ncc4c(n3)N(C3CCCC3)CC(F)(F)C(=O)N4C)c(F)c2)CC1` [Example I-224, 4-(9-cyclopentyl-7,7-difluoro-5-methyl-6-oxo-6,7,8,9-tetrahydro-5H-pyrimido[4,5-b][1,4]diazepin-2-ylamino)-N-(1-ethyl-piperidin-4-yl)-3-fluoro-benzamidemide] reads 1 to 50 nM; that for `CCN1C(=O)C(F)(F)CN(C2CCCC2)c2nc(Nc3ccc(C(=O)NC4CCN(C)CC4)cc3OC)ncc21` [Example I-159, 4-(9-cyclopentyl-5-ethyl-7,7-difluoro-6-oxo-6,7,8,9-tetrahydro-5H-pyrimido[4,5-b][1,4]diazepin-2-ylamino)-3-methoxy-N-(1-methyl-piperidin-4-yl)-benzamide], 51 to 500 nM.

`CCc1cc(C(=O)NC2CCN(C)CC2)ccc1Nc1ncc2c(n1)N(C1CCCC1)CC(F)(F)C(=O)N2C` [Example I-195, 4-(9-cyclopentyl-7,7-difluoro-5-methyl-6-oxo-6,7,8,9-tetrahydro-5H-pyrimido[4,5-b][1,4]diazepin-2-ylamino)-3-ethyl-N-(1-methyl-piperidin-4-yl)-benzamide] had an IC50 of 1 to 50 nM.

On to `CNC(=O)c1ccc(Nc2ncc3c(n2)N(C2CCCC2)CC(F)(F)C(=O)N3C)c(C(F)(F)F)c1` [Example I-210, 4-(9-cyclopentyl-7,7-difluoro-5-methyl-6-oxo-6,7,8,9-tetrahydro-5H-pyrimido[4,5-b][1,4]diazepin-2-ylamino)-N-methyl-3-trifluoromethyl-benzamide], for which the IC50 lay in the range of 51 to 500 nM. For `CCN1C(=O)C(F)(F)CN(C2CCCC2)c2nc(Nc3ccc(C(=O)NCCCN(C)C)cc3OC)ncc21` [Example I-160, 4-(9-cyclopentyl-5-ethyl-7,7-difluoro-6-oxo-6,7,8,9-tetra-hydro-5H-pyrimido[4,5-b][1,4]diazepin-2-ylamino)-N-(3-dimethylamino-propyl)-3-methoxy-benzamide], the IC50 fell in the range of 51 to 500 nM.

For `COc1cc(C(=O)NC2CCN(CC(F)F)CC2)ccc1Nc1ncc2c(n1)N(C1CCCCC1)CC(F)(F)C(=O)N2C` [Example I-266, 4-(9-cyclohexyl-7,7-difluoro-5-methyl-6-oxo-6,7,8,9-tetrahydro-5H-pyrimido[4,5-b][1,4]diazepin-2-ylamino)-N-[1-(2,2-difluoro-ethyl)-piperidin-4-yl]-3-methoxy-benzamide], the IC50 is 1 to 50 nM. For `COc1cc(C(=O)N[C@H]2CC[C@H](N3CCN(CC4CC4)CC3)CC2)ccc1Nc1ncc2c(n1)N(C1CCCC1)CC(F)(F)C(=O)N2C` [Example I-300, 4-(9-cyclopentyl-7,7-difluoro-5-methyl-6-oxo-6,7,8,9-tetrahydro-5H-pyrimido[4,5-b][1,4]diazepin-2-ylamino)-N-[trans-4-(4-cyclopropylmethyl-piperazin-1-yl)-cyclohexyl]-3-methoxy-benzamide], the half-maximal inhibitory concentration (IC50) fell in the range of 1 to 50 nM. The same measure, in the same setting: the figure for `CCN1CCC(NC(=O)c2ccc(Nc3ncc4c(n3)N(C3CCCCC3)CC(F)(F)C(=O)N4C)cc2)CC1` [Example I-261, 4-(9-cyclohexyl-7,7-difluoro-5-methyl-6-oxo-6,7,8,9-tetrahydro-5H-pyrimido[4,5-b][1,4]diazepin-2-ylamino)-N-(1-ethyl-piperidin-4-yl)-benzamide] is 1 to 50 nM; for `COc1cc(C(=O)NCCN(C)C)ccc1Nc1ncc2c(n1)N(C1CCCCC1)CC(F)(F)C(=O)N2C` [Example I-253, 4-(9-cyclohexyl-7,7-difluoro-5-methyl-6-oxo-6,7,8,9-tetrahydro-5H-pyrimido[4,5-b][1,4]diazepin-2-ylamino)-N-(2-dimethylamino-ethyl)-3-methoxy-benzamide] it is 1 to 50 nM. Same read-out and setting: the figure for `COc1cc(C(=O)NC2CCOCC2)ccc1Nc1ncc2c(n1)N(C(C)C)CC(F)(F)C(=O)N2C` [Example I-297, 4-(7,7-difluoro-9-isopropyl-5-methyl-6-oxo-6,7,8,9-tetrahydro-5H-pyrimido[4,5-b][1,4]diazepin-2-ylamino)-3-methoxy-N-(tetrahydro-pyran-4-yl)-benzamide] is 1 to 50 nM. The same measure, in the same setting: the result for `CCc1cc(C(=O)NC2CCOCC2)ccc1Nc1ncc2c(n1)N(C1CCCC1)CC(F)(F)C(=O)N2C` [Example I-197, 4-(9-cyclopentyl-7,7-difluoro-5-methyl-6-oxo-6,7,8,9-tetrahydro-5H-pyrimido[4,5-b][1,4]diazepin-2-ylamino)-3-ethyl-N-(tetrahydro-pyran-4-yl)-benzamide] reads 1 to 50 nM; that for `COc1cc(C(=O)NC2CCOCC2)ccc1Nc1ncc2c(n1)N(CCc1cccs1)CC(F)(F)C(=O)N2C` [Example I-274, 4-[7,7-difluoro-5-methyl-6-oxo-9-(2-thiophen-2-yl-ethyl)-6,7,8,9-tetrahydro-5H-pyrimido[4,5-b][1,4]diazepin-2-ylamino]-3-methoxy-N-(tetrahydro-pyran-4-yl)-benzamide], 51 to 500 nM; that for `COc1cc(C(=O)NCCCN(C)C)c(F)cc1Nc1ncc2c(n1)N(C1CCCC1)CC(F)(F)C(=O)N2C` [Example I-172, 4-(9-cyclopentyl-7,7-difluoro-5-methyl-6-oxo-6,7,8,9-tetra-hydro-5H-pyrimido[4,5-b][1,4]diazepin-2-ylamino)-N-(3-dimethylamino-propyl)-2-fluoro-5-methoxy-benzamide], 1 to 50 nM.

The same assay, now with this note: GST-PLK1, GST-p53 substrate, ATP.
Regarding `COc1cc(C(=O)NC2CCN(CC(F)(F)F)CC2)ccc1Nc1ncc2c(n1)N(C1CCCC1)CC(F)(F)C(=O)N2C` [Example I-77, 4-(9-cyclopentyl-7,7-difluoro-5-methyl-6-oxo-6,7,8,9-tetrahydro-5H-pyrimido[4,5-b][1,4]diazepin-2-ylamino)-3-methoxy-N-[1-(2,2,2-trifluoro-ethyl)-piperidin-4-yl]-benzamide], the IC50 lay within 1 to 50 nM. Still for that read-out and setting: the figure for `COc1cc(C(=O)NCCCNC2CCCCC2)ccc1Nc1ncc2c(n1)N(C1CCCC1)CC(F)(F)C(=O)N2C` [Example I-53, N-(3-cyclohexylamino-propyl)-4-(9-cyclopentyl-7,7-difluoro-5-methyl-6-oxo-6,7,8,9-tetrahydro-5H-pyrimido[4,5-b][1,4]diazepin-2-ylamino)-3-methoxy-benzamide] is 1 to 50 nM; for `COc1cc(C(=O)NC2CCCCC2)ccc1Nc1ncc2c(n1)N(C1CCCC1)CC(F)(F)C(=O)N2C` [Example I-27, N-cyclohexyl-4-(9-cyclopentyl-7,7-difluoro-5-methyl-6-oxo-6,7,8,9-tetrahydro-5H-pyrimido[4,5-b][1,4]diazepin-2-ylamino)-3-methoxy-benzamide] it is 1 to 50 nM.

In the case of `COc1cc(C(=O)NCC2CCCCC2)ccc1Nc1ncc2c(n1)N(C1CCCC1)CC(F)(F)C(=O)N2C` [Example I-32, N-cyclohexylmethyl-4-(9-cyclopentyl-7,7-difluoro-5-methyl-6-oxo-6,7,8,9-tetrahydro-5H-pyrimido[4,5-b][1,4]diazepin-2-ylamino)-3-methoxy-benzamide], the IC50 lay in the range of 51 to 500 nM.

As to `O=C(NC1CCOCC1)c1ccc(Nc2ncc3c(n2)N(C2CCCC2)CC(F)(F)C(=O)N3)cc1` [Example I-136, 4-(9-cyclopentyl-7,7-difluoro-6-oxo-6,7,8,9-tetrahydro-5H-pyrimido[4,5-b][1,4]diazepin-2-ylamino)-N-(tetrahydro-pyran-4-yl)-benzamide], the IC50 is 500 to 5000 nM. Same read-out and setting: the result for `COc1cc(C(=O)NC2CN(C)C2)ccc1Nc1ncc2c(n1)N(C1CCCC1)CC(F)(F)C(=O)N2C` [Example I-99, 4-(9-cyclopentyl-7,7-difluoro-5-methyl-6-oxo-6,7,8,9-tetrahydro-5H-pyrimido[4,5-b][1,4]diazepin-2-ylamino)-3-methoxy-N-(1-methyl-azetidin-3-yl)-benzamide] reads 1 to 50 nM; that for `COc1cc(C(=O)NC2CCN(C(=O)C(C)(C)N)CC2)ccc1Nc1ncc2c(n1)N(C1CCCC1)CC(F)(F)C(=O)N2C` [Example I-88, N-[1-(2-amino-2-methyl-propionyl)-piperidin-4-yl]-4-(9-cyclopentyl-7,7-difluoro-5-methyl-6-oxo-6,7,8,9-tetrahydro-5H-pyrimido[4,5-b][1,4]diazepin-2-ylamino)-3-methoxy-benzamide], 1 to 50 nM. Still for that read-out and setting: the result for `COc1cc(C(=O)NCCCn2ccnc2)ccc1Nc1ncc2c(n1)N(C1CCCC1)CC(F)(F)C(=O)N2C` [Example I-61, 4-(9-cyclopentyl-7,7-difluoro-5-methyl-6-oxo-6,7,8,9-tetrahydro-5H-pyrimido[4,5-b][1,4]diazepin-2-ylamino)-N-(3-imidazol-1-yl-propyl)-3-methoxy-benzamide] reads 1 to 50 nM; that for `CNC(=O)c1ccc(Nc2ncc3c(n2)N(C2CCCC2)CC(F)(F)C(=O)N3)cc1` [Example I-133, 4-(9-cyclopentyl-7,7-difluoro-6-oxo-6,7,8,9-tetrahydro-5H-pyrimido[4,5-b][1,4]diazepin-2-ylamino)-N-methyl-benzamide], 500 to 5000 nM. The molecule `NC(=O)c1ccc(Nc2ncc3c(n2)N(C2CCCC2)CC(F)(F)C(=O)N3)cc1` [Example I-132, 4-(9-cyclopentyl-7,7-difluoro-6-oxo-6,7,8,9-tetrahydro-5H-pyrimido[4,5-b][1,4]diazepin-2-ylamino)-benzamide] showed an IC50 above 5000 nM.
